Source: patent publication US8163700B2, “Inhibitors of myelin-associated glycoprotein (MAG) activity for regulating neural growth and regeneration” (Research Foundation of City University of New York, priority 2002, dated 2012)
Substitutions are numbered along the chain they refer to. Numbers in names are those of the source. Entries after “also recorded” stand apart in the source; their conditions may differ.

B1: MAG(L346D)-Fc: murine MAG-Fc with point mutation L346D, Ig domain 4 (protein, UniProt P20917 20-516, looked up, variant L346D)
extracellular domain: GHWGAWMPSTISAFEGTCVSIPCRFDFPDELRPAVVHGVWYFNSPYPKNYPPVVFKSRTQVVHESFQGRSRLLGDLGLRNCTLLLSTLSPELGGKYYFRGDLGGYNQYTFSEHSVLDIVNTPNIVVPPEVVAGTEVEVSCMVPDNCPELRPELSWLGHEGLGEPTVLGRLREDEGTWVQVSLLHFVPTREANGHRLGCQAAFPNTTLQFEGYASLDVKYPPVIVEMNSSVEAIEGSHVSLLCGADSNPPPLLTWMRDGMVLREAVAKSLYLDLEEVTPGEDGVYACLAENAYGQDNRTVELSVMYAPWKPTVNGTVVAVEGETVSIDCSTQSNPDPILTIFKEKQILATVIYESQLQLELPAVTPEDDGEYWCVAENQYGQRATAFNLSVEFAPIILLESHCAAARDTVQCLCVVKSNPEPSVAFELPSRNVTVNETEREFVYSERSGLLLTSILTIRGQAQAPPRVICTSRNLYGTQSLELPFQGAHRLMWAKIGP
modifications: extracellular domain Fc fusion
B2: MAG(E410K)-Fc: murine MAG-Fc with point mutation E410K, Ig domain 4/5 (protein, UniProt P20917 20-516, looked up, variant E410K)
extracellular domain: B1 extracellular domain with D327L, E391K
modifications: extracellular domain Fc fusion
B3: MAG(L431D)-Fc: murine MAG-Fc with point mutation L431D, Ig domain 5 (protein, listed as Mus sp.)
chain: MIFLATLPLFWIMISASRGGHWGAWMPSTISAFEGTCVSIPCRFDFPDELRPAVVHGVWYFNSPYPKNYPPVVFKSRTQVVHESFQGRSRLLGDLGLRNCTLLLSTLSPELGGKYYFRGDLGGYNQYTFSEHSVLDIVNTPNIVVPPEVVAGTEVEVSCMVPDNCPELRPELSWLGHEGLGEPTVLGRLREDEGTWVQVSLLHFVPTREANGHRLGCQAAFPNTTLQFEGYASLDVKYPPVIVEMNSSVEAIEGSHVSLLCGADSNPPPLLTWMRDGMVLREAVAKSLYLDLEEVTPGEDGVYACLAENAYGQDNRTVELSVMYAPWKPTVNGTVVAVEGETVSILCSTQSNPDPILTIFKEKQILATVIYESQLQLELPAVTPEDDGEYWCVAENQYGQRATAFNLSVEFAPIILLESHCAAARDTVQCDCVVKSNPEPSVAFELPSRNVTVNETEREFVYSERSGLLLTSILTIRGQAQAPPRVICTSRNLYGTQSLELPFQGAHRLMWAKIGPVGAVVAFAILIAIVCYITQTRRKKNVTESSSFSGGDNPHVLYSPEFRISGAPDKYESREVSTRDCH
modifications: Fc fusion

Each molecule was assayed on cerebellar neurons (assay: Neurite outgrowth on L1-Fc substrate in the presence of soluble MAG-Fc chimeras (FIG. 3)). Conditions: soluble protein 25 μg/ml, 18 hours, compared to control chimera.
Type: cell-based
Method: FIG. 3 Inhibition of neurite outgrowth from cerebellar neurons by MAG-Fc Derivatives Cerebellar neurons were isolated (Example 1) and plated onto a growth promoting substrate of L1 protein (Example 4). A control MUC-Fc fusion (clear bar), wild-type MAG-Fc (striped bar) and MAG-Fc derivatives having point mutations in MAG Ig-like domains 4 or 5 (grey bars) were constructed (Example 4) and added in soluble form to neurons (25 μg/ml). After 18 hours, cultures were fixed and stained for GAP-43 antigen. Neurite length was measured and the average length was calculated for 180-200 neurons (+/−SEM).
Individual wells of an eight-chamber tissue culture plastic slide (Lab-Tek, Nuc. Inc.) were incubated with 0.3 nil of 16.6 μg/ml poly-1-lysine in sterile water for at least one hour under sterile conditions. Each well was washed twice with 400 μl of a 0.1M sodium bicarbonate solution, pH 9.6, and then received 0.3 ml of 0.1M sodium bicarbonate solution, pH 9.6, containing 15 μg/ml goat anti-human IgG (Fc-specific) monoclonal antibody (Sigma). The wells were incubated for 2 hours (h) at 37° C., and washed three times with 0.4 ml of ice-cold DMEM. Each well then received 0.3 nil of DMEM containing 40 μg/ml of L1-Fc and was incubated for 2-4 h at 37° C. The welts were washed twice DMEM.
Cerebellar neurons (post-natal days 2-7) were dissociated by trypsinization as described in Example 1, except that the dissociated neurons were resuspended in 5 ml of SATO medium containing 2% dialyzed FBS. To an individual well coated with a monolayer of L1-Fc as described above, 5.0×10^4 cerebellar neurons were added, followed by addition of one of the mutant MAG-Fc or MUC18-Fc chimeric soluble protein described above at a concentration of 25 μg/ml. Neurons were cultured for 18 hours at 37° C., and then fixed and stained for GAP43 essentially as described in Example 2. Neurite length was measured for 180-200 neurons.

| Molecule | inhibition of neurite outgrowth (in words) |
| --- | --- |
| B1 | inhibited neurite outgrowth as effectively as MAG-Fc |
| B2 | inhibited neurite outgrowth as effectively as MAG-Fc |
| B3 | none |

What follows are molecules tested on wild-type MAG-expressing cells (assay: Neurite outgrowth on MAG-expressing cells in the presence of MAG, Nogo and OMgp peptides (Example 6)). Conditions: tested as described in Example 5; example written in present tense.
Type: cell-based
Text: Peptides corresponding to amino acid residues […] of MAG (MAG(343-371)), amino acid residues 363-397 (MAG(363-397)), amino acid residues 394-428 (MAG(394-428)), amino acid residues 422-451 (MAG(422-451)), amino acid residues 442-471 (MAG(442-471)), and amino acid residues 461-498 (MAG(461-498)) were synthesized. Peptides were obtained from SynPep Corp. (Dublin, Calif.). MAG(343-371), MAG(363-397) and MAG(394-428) correspond to amino acid residues from the Ig4 domain of MAG. MAG(422-451), MAG(442-471) and MAG(461-498) corresponds to amino acid residues from the Ig5 domain of MAG. […] Results are shown in FIG. 4 (and are represented as number of neurons with processes longer than 2-times the cell diameter). […] Results are shown in FIG. 5 (and are represented as average neurite length for 180-200 neurons).
Peptides corresponding to MAG amino acid residues 437-441 (M437), 446-455 (M446), 450-455 (M450), 466-471 (M466); and 472-477 (M472) are constructed and tested in neurite outgrowth assays as described in Example 5. (See peptides in FIG. 18).
Peptides corresponding to Nogo-66 amino acid residues 13-17 (N13), 22-31(N22-1), 22-34 (N22-2), 26-31 (N26-1); 26-34 (N26-2); 9-33 (N-9-1); 9-34 (N-9-2); 38-62 (N38); 42-47 (N42); and 48-53 (N48) are also constructed and tested in neurite outgrowth assays as described in Example 5.
Peptides corresponding to OMgp amino acid residues 206-210 (O206), 215-224 (O215), 219-224 (O219), 202-226 (O202); 231-255 (O231), 235-240 (O235) 241-246 (O241) are constructed and tested in neurite outgrowth assays as described in Example 5.

| Molecule | effect on the ability of wild-type MAG-expressing cells to inhibit neurite outgrowth |
| --- | --- |
| M446: peptide of MAG amino acid residues 446-455 (SEQ ID NO: 18) (LPSRNVTVNE) | reduce the ability of the wild-type MAG-expressing cells to inhibit neurite outgrowth |
| O235: peptide of OMgp amino acid residues 235-240 (SEQ ID NO: 40) (ITYLLK) | reduce the ability of the wild-type MAG-expressing cells to inhibit neurite outgrowth |
| M472: peptide of MAG amino acid residues 472-477 (SEQ ID NO: 22) (SILTLR) | reduce the ability of the wild-type MAG-expressing cells to inhibit neurite outgrowth |
| O231: peptide of OMgp amino acid residues 231-255 (SEQ ID NO: 39) (HKQNITYLLKWVMETKAHVIGTPCS) | reduce the ability of the wild-type MAG-expressing cells to inhibit neurite outgrowth |
| O241: peptide of OMgp amino acid residues 241-246 (SEQ ID NO: 41) (WVMETK) | reduce the ability of the wild-type MAG-expressing cells to inhibit neurite outgrowth |
| N38: peptide of Nogo-66 amino acid residues 38-62 (SEQ ID NO: 32) (SNSALGHVNSTIKELRRLFLVDDLV) | reduce the ability of wild-type MAG-expressing cells to inhibit neurite outgrowth; also recorded: reduce the ability of the wild-type MAG-expressing cells to inhibit neurite outgrowth |
| O219: peptide of OMgp amino acid residues 219-224 (SEQ ID NO: 37) (EITLHN) | reduce the ability of the wild-type MAG-expressing cells to inhibit neurite outgrowth |
| O202: peptide of OMgp amino acid residues 202-226 (SEQ ID NO: 38) (KFTFIPEQSFDQLLQLQEITLHNNR) | reduce the ability of the wild-type MAG-expressing cells to inhibit neurite outgrowth |
| M450: peptide of MAG amino acid residues 450-455 (SEQ ID NO: 19) (NVTVNE) | reduce the ability of the wild-type MAG-expressing cells to inhibit neurite outgrowth |
| N-9-1: peptide of Nogo-66 amino acid residues 9-33 (LVSSSDSPPRPQPAFKYQFVREPED; Nogo-66; UniProt Q9NQC3 9-33, looked up, fragment) | reduce the ability of wild-type MAG-expressing cells to inhibit neurite outgrowth; also recorded: reduce the ability of the wild-type MAG-expressing cells to inhibit neurite outgrowth |
| O215: peptide of OMgp amino acid residues 215-224 (SEQ ID NO: 36) (LQLQEITLHN) | reduce the ability of the wild-type MAG-expressing cells to inhibit neurite outgrowth |
| M437: peptide of MAG amino acid residues 437-441 (SEQ ID NO: 17) (NPEPS) | reduce the ability of the wild-type MAG-expressing cells to inhibit neurite outgrowth |
| M466: peptide of MAG amino acid residues 466-471 (SEQ ID NO: 21) (SGLLLT) | reduce the ability of the wild-type MAG-expressing cells to inhibit neurite outgrowth |
| N-9-2: peptide of Nogo-66 amino acid residues 9-34 (LVSSSDSPPRPQPAFKYQFVREPEDE; Nogo-66; UniProt Q9NQC3 9-34, looked up, fragment) | reduce the ability of wild-type MAG-expressing cells to inhibit neurite outgrowth; also recorded: reduce the ability of the wild-type MAG-expressing cells to inhibit neurite outgrowth |
| N48: peptide of Nogo-66 amino acid residues 48-53 (DLEELE; Nogo-66; UniProt Q9NQC3 48-53, looked up, fragment) | reduce the ability of wild-type MAG-expressing cells to inhibit neurite outgrowth; also recorded: reduce the ability of the wild-type MAG-expressing cells to inhibit neurite outgrowth |
| O206: peptide of OMgp amino acid residues 206-210 (SEQ ID NO: 35) (IPEQS) | reduce the ability of the wild-type MAG-expressing cells to inhibit neurite outgrowth |
| N42: peptide of Nogo-66 amino acid residues 42-47 (EEDEDE; Nogo-66; UniProt Q9NQC3 42-47, looked up, fragment) | reduce the ability of wild-type MAG-expressing cells to inhibit neurite outgrowth; also recorded: reduce the ability of the wild-type MAG-expressing cells to inhibit neurite outgrowth |
